The values that follow come from PMC11239005, “Preclinical studies of RA475, a guanidine-substituted spirocyclic candidate RPN13/ADRM1 inhibitor for treatment of ovarian cancer” (PLOS ONE, 2024).

For data set [1] the following is noted: cited from earlier work.
The nature of data set [2]: LogD measurement, shake-flask octanol/PBS pH 7.4. The class given is physicochemical. Particulars: octanol/PBS pH 7.4, single injections 1-3. As for the experimental part:
Incubations were carried out in Eppendorf-type polypropylene microtubes in triplicates. A 2.5 μL aliquot of 20 mM DMSO stock of a test compound was added into the previously mutually saturated mixture containing 500 μL of PBS (pH 7.4) and 500 μL of octanol. The solution was allowed to mix in a rotator for 1 hour at 30 rpm. Phase separation was assured by centrifugation for 2 min at 6000 rpm. The octanol phase was diluted 100-fold with 40% acetonitrile, and the aqueous phase (PBS buffer) was diluted 10-fold. The samples (both phases) were analyzed using an HPLC system coupled with a tandem mass spectrometer. […] Calculations of the partition ratios were carried out using the equation below. D=do.So/dp.Sp where:
So–peak area of the analyte in octanol phase
SP–peak area of the analyte in PBS buffer
do–dilution coefficient for octanol phase

The subject of data set [3] is high molecular weight polyubiquitinated proteins in SKOV3 cells. Put plainly: Anti-ubiquitin immunoblot, SKOV3. It counts as cell-based. The note with it: Up284 and RA475 0.5 and 1 μM, RA190 1 μM. The source says: (§1) Cell lysate prepared in MPER (Pierce) from each sample was normalized by total protein concentration using the bicinchoninic acid assay and bovine serum albumin standards. Normalized samples were subjected to SDS-PAGE, transferred to PVDF membranes and analyzed by Western blot using antibodies specific to ubiquitin (P4D1, sc-8017, Santa Cruz), PARP (#9542, […]), actin (#66009, Protein Tech Group), Tubulin(#66031, Protein Tech Group), ADRM1/RPN13 (D9Z1U, #12019, Cell Signaling), USP14 (Cell Signal, # 8159), Annexin V (#559763, BD Pharmingen), and for secondary antibodies we utilized either horseradish peroxidase (HRP)-linked anti-mouse IgG or anti-rabbit IgG (GE Healthcare UK Ltd), HRP-linked streptavidin (N100, Thermo Fisher) at the recommended dilution (1:5000).
(§2) Accumulation of high molecular weight polyubiquitinated proteins (polyUb) is a classical phenomenon of proteasome function inhibition due to the stabilization of its substrate.
Fig 3 Impact of RA475 on proteasome function. […] Actin was used as loading control. […] C) 4T1 and HCC1806 cells stably expressing 4UbFL were treated with compounds at indicated doses for 4 h and imaged by IVIS200 after the addition of luciferin substrate (50 μL, 7mg/mL in PBS). […] After a 4 h incubation, the cells were lysed and the luciferase activity in each cell lysate was determined with a luciferase assay kit (Promega) according to the manufacturer’s instructions. Bioluminescence was measured by using a luminometer (Glomax Multidetection system, Promega) E) A patch was shaved of hair on one leg of CD-1 mice, and 10 μg 4UbFL plasmid in 20 μL of PBS was injected into the quadriceps femoralis muscle followed immediately by injection of the 2 Needle Array to 5 mm depth encompassing the injection site and square wave electroporation (ElectroSquarePorator 833, BTX-2 Needle array 5mm gap, Harvard apparatus) delivered as eight pulses at 106V for 20 ms with 200 ms intervals. […] Equally sized areas were analyzed using Living Image 2.20 software. […]
Background: In western blotting, separated proteins are transferred to a membrane and probed.

The conditions of data set [4]: human and mouse microsomes; cited from earlier work.
Data set [5] has as its system PEA1 cells. Put plainly: MTT cytotoxicity assay, PEA1. Particulars: Homo sapiens, PEA1, 72 h. It counts as cell-based, human. As for the experimental part:
(§3) All cell lines were obtained from the American Type Culture Collection (ATCC) and cultured in the specified medium supplemented with 10% fetal bovine serum, 100 IU/mL penicillin, and 100 μg/mL streptomycin at 37°C in a humidified 5% CO2/95% air incubator. Synthesis of new compounds is described in S1 File, and >95% purity of RA475, Up284 and its analogs were confirmed by NMR and MS. To assess drug cytotoxicity, cells were seeded at 2,500 cells/well (10,000 cells/well for MM lines) in 100 μL medium in 96-well plate as triplicates and after 24 h treated with compounds for a further 72 h. To assess cytotoxicity, the cells were incubated for 2 h at 37°C according to the manufacturer’s protocol with the Thiazolyl Blue Tetrazolium Bromide (20 μL/well of 5 mg/mL stock solution in water) (Sigma, M5655) and A570 measured using a Benchmark Plus microplate spectrophotometer (BIO-RAD). IC50 was estimated using Graphpad Prism 7 software.
(§4) Modifications of Up284 were sought to improve its drug-like properties without significant compromise of its activity in vivo, and several new compounds were synthesized (S1 File). Based on our prior studies of its pharmacophore, the central ring nitrogen was the most logical for addition of charged moieties, including RA475 and RA484. We also examined a change to either 3,4 spiro rings (RA477, RA479), or addition of 3-Fluoro substitutions (RA482) (S1 File). Our focus is developing iRPN13 to treat ovarian cancer resistant to standard of care drug regimens.
A wash-out experiment was performed to assess reversibility of the toxicity. PEA1 cells were treated with RA475 for 1 h before the medium was replaced with fresh culture medium, and the cells were then allowed to grow for another 71 hours (PEA1-WO). In parallel, PEA1 cells were incubated with RA475 continuously for 72 h. […] Possible reasons include slow uptake of RA475, reversible binding and neutralization by antioxidants in the medium.
To study the effect of RA475 in combination with approved therapeutics (DNA damaging agents or radiation) an MTT assay was performed using various concentrations of both drugs. Briefly PEA1 and OVCAR3 cells were each treated with drug combination (RA475 plus cisplatin) for 72 h in a checker board analysis and cell viability was measured using MTT assay. The data were analyzed and plotted using the Synergy Finder web application.
A general note: Formazan colour is commonly taken as a measure of viable cells.

Data set [6] concerns PEA2. Put plainly: MTT cytotoxicity assay, PEA2. The class given is cell-based. Particulars: Homo sapiens; PEA2, 72 h, MTT; read-out: IC50. As for the experimental part:
as §3, §4

In data set [7] the test system is spontaneous genetically-engineered peritoneal tumor (shp53, AKT, c-Myc). The data set is described as follows: Spontaneous GEMM of primary peritoneal/ovarian cancer. The class given is in vivo, mouse. Particulars: C57BL/6; RA475 40 mg/kg IP every 3 days (12 doses); cisplatin 5 mg/Kg weekly (5 doses alone, 3 in combination). The method, then:
To induce IP tumor formation in immunocompetent mice, oncogenes (shp53, AKT, c-Myc), luciferase and the Sleeping Beauty (SB) transposase (10 μg/plasmid) were diluted in 500 μL of PBS and injected IP into female C57BL/6 mice. The mice were anesthetized by intramuscular injection of 50–100μL of a cocktail of ketamine 16 mg/mL / 3 mg/mL xylazine. The plasmid-injected mice were electroporated (EP) by the BTX ECM 830 square wave EP generator (BTX) (5 pulses, 200 V for 100 ms/pulse, 100 ms intervals between each pulse) with the caliper electrode (BTX) held across the waist of mouse. The mice were followed by IVIS imaging weekly for tracking tumor growth. The mice were sacrificed when the bioluminescence signal reached 10^9 photons/sec/cm^2/sr, or had enlarged abdomens due to the production of ascites, or had health conditions and/or criteria under which early euthanasia was required by the protocol. To track peritoneal tumor growth, bioluminescence imaging was performed by the IVIS Spectrum2000 (PerkinElmer) as the plasmid expressing SB transposase also produces luciferase. Briefly, the mice were injected IP with D-luciferin (GoldBio). After 10 min, the mice were anesthetized with isoflurane, and imaged by the IVIS Spectrum under the auto exposure mode. Bioluminescence in the peritoneal region was quantified as total photon counts/sec/cm^2/sr using Living Image 3.0 Software (Perkin Elmer).
GEMM better mimic the spontaneous development of cancers in an immune competent host than transplantable tumor lines. Female C57BL/6 mice were co-injected IP with sleeping beauty vector and plasmids expressing carrying shp53, AKT, c-Myc and firefly luciferase genes, followed by electroporation (EP) to deliver these plasmid DNA into the peritoneal cavity cells wherein they integrate randomly into their genome. After 7 days mice were imaged by IVIS200 for bioluminescence and randomized. Four groups (n = 8) were treated IP with vehicle or RA475 (40mg/kg, IP, every 3 days) or Cisplatin (5 mg/Kg, once a week) or the combination of RA475 (40mg/Kg, IP, every 3 days) plus Cisplatin (5 mg/Kg, once a week). […] While cisplatin reduced tumor growth, it led to severe toxicity including weight loss >20% that was not evident with RA475 alone.
Fig 7 Administration of RA475, cisplatin or the combination to mice bearing spontaneous, genetically-engineered model ovarian/peritoneal cancer. Female C57BL/6 mice were co-injected IP with sleeping beauty vector and plasmids expressing carrying shp53, AKT, c-Myc and firefly luciferase genes, followed by electroporation (EP) to deliver these plasmid DNA into the peritoneal cavity cells wherein they integrate randomly into their genome. After 7 days mice were imaged by Xenogen IVIS200 for bioluminescence and randomized. […]

Data set [8] concerns MDA-MB-468 cells. The data set is described as follows: Surface Annexin V display by flow cytometry, MDA-MB-468. Particulars: MDA-MB-468, 12 h; RA475 1 or 2 μM, ixazomib 1 μM. The class given is cell-based. The method, then: The percentage of cells initiating apoptosis was assessed with the annexin V FITC assay kit. The cells (2 × 10^5 cells/well) were treated with the described compounds at selected concentrations for 12 h or 16 h, as indicated. The cells were then collected, washed with PBS, resuspended in 100 μL of annexin V-FITC and 7-AAD dual-stain solution (3 μL Annexin V and 3 μL 7AAD, Catalog Number; 559763-BD bioscience), and incubated 20 min in the dark. The samples were then analyzed via flow cytometry using FlowJo V10 software. All experiments were repeated three times.
Supplementary file pone.0305710.s006.tif: S6 Fig RA475 induced apoptosis in a triple negative breast cancer cell line. […] (TIF)
For orientation: Flow cytometry measures light scatter and fluorescence of single cells or particles in a stream.

Data set [9] has as its system high molecular weight polyubiquitinated proteins in OVCAR3 cells. Put plainly: Anti-ubiquitin immunoblot, OVCAR3. The class given is cell-based, human. The note with it: Up284 0.5 μM, bortezomib 0.25 μM, ixazomib 0.25 μM, RA475 0.5 or 1 μM.
From the text: as §1, §2
Fig 3 Impact of RA475 on proteasome function. […] Actin was used as loading control. […] C) 4T1 and HCC1806 cells stably expressing 4UbFL were treated with compounds at indicated doses for 4 h and imaged by IVIS200 after the addition of luciferin substrate (50 μL, 7mg/mL in PBS). D) Sub-confluent cultures of ES2 cells stably expressing 4UbFL were seeded at 10,000 cells/well in 96-well microtiter plates. At 18 h post transfection, cells were treated with compounds or vehicle (DMSO) at the doses indicated. After a 4 h incubation, the cells were lysed and the luciferase activity in each cell lysate was determined with a luciferase assay kit (Promega) according to the manufacturer’s instructions. Bioluminescence was measured by using a luminometer (Glomax Multidetection system, Promega) E) A patch was shaved of hair on one leg of CD-1 mice, and 10 μg 4UbFL plasmid in 20 μL of PBS was injected into the quadriceps femoralis muscle followed immediately by injection of the 2 Needle Array to 5 mm depth encompassing the injection site and square wave electroporation (ElectroSquarePorator 833, BTX-2 Needle array 5mm gap, Harvard apparatus) delivered as eight pulses at 106V for 20 ms with 200 ms intervals. One day post electroporation, mice were anesthetized with isoflurane, injected IP with luciferin (0.3 mg in 100 μL water) and optical imaging was performed to determine basal level luciferase expression. Images were acquired for 10 min with a Xenogen IVIS 200 (Caliper, Hopkinton, MA). Equally sized areas were analyzed using Living Image 2.20 software. Mice were imaged weekly during treatment. […]

SMILES strings stand for the structures. Where “and” joins values, the source holds several entries; their conditions need not be identical. Equal entries are not always repeated. Structures can show the parent of a compound that is named as a salt.

As for `CC(C)C[C@H](NC(=O)[C@H](CCc1ccccc1)NC(=O)CN1CCOCC1)C(=O)N[C@@H](Cc1ccccc1)C(=O)N[C@@H](CC(C)C)C(=O)[C@@]1(C)CO1` [Carfilzomib, carfilzomib], in data set [1], the “access to the brain” value is “mostly excluded from the brain”.
Regarding `COC(=O)Nc1nc2ccc(C(=O)c3ccccc3)cc2[nH]1` [Mebendazole], the D in [2] was 8.61E+02 and 8.97E+02 and 8.85E+02.
For the compound `Cl.N[C@@H](Cc1ccccc1)C(=O)N1C/C(=C/c2ccc(Cl)c(Cl)c2)C(=O)/C(=C\c2ccc(Cl)c(Cl)c2)C1` [RA190], the “accumulation of high molecular weight polyubiquitinated proteins” value in data set [3] is “robust accumulation of polyUb”. For the same compound, the “breakdown in microsomes compared with RA475” value in [4] is on record as “more rapidly broken down”.
As usually defined, the IC50 is the point on the concentration scale where inhibition reaches its midpoint. `N#Cc1ccc(/C=C2/C(=O)/C(=C/c3ccc(C#N)cc3)C23CCN(C(=N)N)C3)cc1` [RA477, 1,3-bis((E)-4-cyanobenzylidene)-2-oxo-6-azaspiro[3.4]octane-6-carboximidamide dihydrochloride]: the values for the IC50 in data set [5] and in data set [6] were 331 nM and 312 nM, respectively.
The matching figures for `N#Cc1ccc(/C=C2/C(=O)/C(=C/c3ccc(C#N)c(F)c3)C23CCN(C(=N)N)C3)cc1F` [RA479, 1,3-bis((E)-4-cyano-3-fluorobenzylidene)-2-oxo-6-azaspiro[3.4]octane-6-carboximidamide dihydrochloride]: 350 nM and 320 nM.
Turning to `N#Cc1ccc(/C=C2/C(=O)/C(=C/c3ccc(C#N)c(F)c3)C23CCN(C(=N)N)CC3)cc1F` [RA482, 1,3-bis((E)-4-cyano-3-fluorobenzylidene)-2-oxo-7-azaspiro[3.5]nonane-7-carboximidamide dihydrochloride], the IC50 in data set [5] was found to be 396 nM; in data set [6], 410 nM.
The matching figures for `N#Cc1ccc(/C=C2/C(=O)/C(=C/c3ccc(C#N)cc3)C23CCN(C(=N)N2CCOCC2)CC3)cc1` [RA484, 4,4'-((1E,1'E)-(7-(imino(morpholino)methyl)-2-oxo-7-azaspiro[3.5]nonane-1,3-diylidene)bis(methaneylylidene))dibenzonitrile]: 479 nM and 522 nM.
Consider `N.N.[Cl][Pt][Cl]` [cisplatin, reference compound], for which the “tumor burden by bioluminescence” value in data set [7] is “significantly better delayed, but did not reduce, tumor burden”.
Regarding `CC(C)C[C@H](NC(=O)CNC(=O)c1cc(Cl)ccc1Cl)B(O)O` [ixazomib], the “apoptosis by surface Annexin V display” value in data set [8] was “initiated apoptosis”. Moreover, the “forms of polyUb induced” value in data set [9] is recorded as “only induced the smaller poly Ub forms, typically <250kDa”. For the same compound, the “access to the brain” value in [1] is recorded as “mostly excluded from the brain”.
